In US10751381B2, “Composition for preventing, relieving or treating colitis, containing complex extracts” (UNIVERSITY-INDUSTRY COOPERATION GROUP OF KYUNG HEE …, priority 2013, dated 2020):

How the values were obtained:
Format in all cases: in vivo, mice (C57BL/6)
[1] = system: model animals with acute colitis induced by TNBS; assay: Acute colitis induced by TNBS in mice, primary experiment: weight change, colon appearance score, colon length; conditions: TNBS-treated mice, 10 mg/kg orally once daily for 3 days, percentage to normal group (saline, no TNBS)
Description: All the mice were bred under the controlled environmental conditions of 50±10% of humidity at a temperature of 20° C. to 22° C., and the lighting was provided by repeatedly turning on for 12 hours followed by turning off for 12 hours. A feed for a standard experiment (Samyang, Korea) was used as a feed, and ad libitum access to water was allowed. In all experiments, each group consisted of 6 mice. […] Meanwhile, for the normal group, 0.1 mL of normal saline solution was orally administered. Subsequently, from the following day, the sample dissolved in normal saline solution was orally administered at a predetermined volume once daily for 3 days. On the following day after completing the sample administration, the experimental animals were suffocated to death with carbon dioxide, and the colon from the appendix to the region immediately before the anus was removed from the colon region. In this case, as a drug sample, the experiments using the butanol-soluble fraction of the Anemarrhena asphodeloides Bunge extract, mangiferin, and a combined extract were separately performed with time intervals, respectively, and the effects of the drug samples on preventing or treating colitis were reasonably analyzed based on the group supplied with normal saline solution instead of a specific drug in the model animals not treated with TNBS, for each of the experiments. The sample administration to the model animals with colitis induced by TNBS was stopped, and on the following day, the weight of the experimental animals was measured, and the measured weight was compared with the initial weight to calculate the amount of change in weight. The scores about the removed colons were estimated by observing the appearances and the length of the colons according to the following criteria (Hollenbach, et al., the criteria about the colitis level in 2005) as listed in Table 1. In this case, as a positive control group, the group administered with Mesalazine® (Sigma) was used. […]

Myeloperoxidase (MPO) [2] = assay: MPO activity in colon tissue (ELISA kit), TNBS acute colitis, primary experiment; conditions: TNBS-treated mice, 10 mg/kg orally once daily for 3 days, percentage to normal group
Description: (§1) Among the experimental groups, one group was set as a normal group, and the experimental animals in other groups were induced with acute colitis by 2,4,6-trinitrobenzenesulfonic acid (TNBS). In detail, after lightly anesthetizing the experimental animals with ether, 0.1 mL of the solution prepared by mixing 2.5 g of 2,4,6-Trinitrobenzene sulfonic acid (NBS) solution with 50% ethanol was injected into the colon through the anus using a syringe having 1 mL volume and an oval point, respectively; the syringe was vertically picked up, and then, maintained for 30 seconds to induce inflammation. Meanwhile, for the normal group, 0.1 mL of normal saline solution was orally administered. […] In this case, as a drug sample, the experiments using the butanol-soluble fraction of the Anemarrhena asphodeloides Bunge extract, mangiferin, and a combined extract were separately performed with time intervals, respectively, and the effects of the drug samples on preventing or treating colitis were reasonably analyzed based on the group supplied with normal saline solution instead of a specific drug in the model animals not treated with TNBS, for each of the experiments.
100 mg of colon tissues were homogenized after adding 200 μL of lysis buffer thereto. […] Subsequently, 100 μL of a stop solution was added to terminate the reaction, and the absorbance was measured at 450 nm using an ELISA reader.

TNF-α = TNF-α expression in colon tissue (ELISA), TNBS acute colitis, primary experiment; conditions: TNBS-treated mice, 10 mg/kg orally once daily for 3 days, percentage to normal group
Description: as §1, with “administered. Subsequently, from the following day, the sample dissolved in normal saline solution was orally administered at a predetermined volume once daily for 3 days.” for “administered.”, “experiments. […]” for “experiments.”

IL-1β = IL-1β expression in colon tissue (ELISA), TNBS acute colitis, primary experiment; conditions: TNBS-treated mice, 10 mg/kg orally once daily for 3 days, percentage to normal group
Description: as §1, with “administered. Subsequently, from the following day, the sample dissolved in normal saline solution was orally administered at a predetermined volume once daily for 3 days.” for “administered.”, “experiments. […]” for “experiments.”

IL-6 = IL-6 expression in colon tissue (ELISA), TNBS acute colitis, primary experiment; conditions: TNBS-treated mice, 10 mg/kg orally once daily for 3 days, percentage to normal group
Description: as §1, with “administered. Subsequently, from the following day, the sample dissolved in normal saline solution was orally administered at a predetermined volume once daily for 3 days.” for “administered.”, “experiments. […]” for “experiments.”

IL-10 = IL-10 expression in colon tissue (ELISA), TNBS acute colitis, primary experiment; conditions: TNBS-treated mice, 10 mg/kg orally once daily for 3 days, percentage to normal group
Description: as §1, with “administered. Subsequently, from the following day, the sample dissolved in normal saline solution was orally administered at a predetermined volume once daily for 3 days.” for “administered.”, “experiments. […]” for “experiments.”

[3] = system: model animals with acute colitis induced by TNBS; assay: Acute colitis induced by TNBS in mice, secondary experiment (extract-based and fraction-based): weight change, colon length, macroscopic score; conditions: TNBS-treated mice, percentage to normal group
Description: All the mice were bred under the controlled environmental conditions of 50±10% of humidity at a temperature of 20° C. to 22° C., and the lighting was provided by repeatedly turning on for 12 hours followed by turning off for 12 hours. A feed for a standard experiment (Samyang, Korea) was used as a feed, and ad libitum access to water was allowed. In all experiments, each group consisted of 6 mice. […] Meanwhile, for the normal group, 0.1 mL of normal saline solution was orally administered. Subsequently, from the following day, the sample dissolved in normal saline solution was orally administered at a predetermined volume once daily for 3 days. On the following day after completing the sample administration, the experimental animals were suffocated to death with carbon dioxide, and the colon from the appendix to the region immediately before the anus was removed from the colon region. In this case, the experiments, where an ethanol extract of Anemarrhena asphodeloides Bunge, an ethanol extract of Coptis chinensis, a combined extract of the ethanol extract of Anemarrhena asphodeloides Bunge and the ethanol extract of Coptis chinensis, and a combined extract of a water extract of Anemarrhena asphodeloides Bunge and a water extract of Coptis chinensis were used as drug samples (hereinafter, “extract-based experiment”), and the experiments, where a butanol-soluble fraction of the ethanol extract of Anemarrhena asphodeloides Bunge, a butanol-soluble fraction of the ethanol extract of Coptis chinensis, and a combined extract of the butanol-soluble fraction of the ethanol extract of Anemarrhena asphodeloides Bunge and the butanol-soluble fraction of the ethanol extract of Coptis chinensis were used as drug samples (hereinafter, “fraction-based experiment”) were separately performed with time intervals, respectively. Considering the characteristics of animal experiments, it is reasonable that the effects of the drug samples on preventing or treating colitis be evaluated within each of the experiments and that the normal group supplied with saline solution instead of a specific drug sample, for the experimental animals not treated with TNBS, be used as a standard. The sample administration to the model animals with colitis induced by TNBS was stopped, and on the following day, the weight of the experimental animals was measured were and then compared with their initial weight to calculate the change in the amount of weight. The scores on the removed colons were estimated by observing the appearances and the length of the colons according to the criteria (Hollenbach et al., the criteria on the levels of colon in 2005) listed in Table 3. In this case, as a positive control group, the group administered with Mesalazine® (Sigma) was used. Additionally, a portion of the content in the colon was collected to analyze the intestinal microorganisms, and then stored in a freezer maintained at −80° C. From the tissues of colon, the content in the colon was completely removed and then the tissues of colon were washed with normal saline solution.

Myeloperoxidase (MPO) [4] = assay: MPO activity in colon tissue (ELISA kit), TNBS acute colitis, secondary experiment; conditions: TNBS-treated mice, percentage to normal group
Description: Among the experimental groups, one group was set as a normal group, and the experimental animals in other groups were induced with acute colitis by 2,4,6-trinitrobenzenesulfonic acid (TNBS). In detail, after lightly anesthetizing the experimental animals with ether, 0.1 mL of the solution prepared by mixing 2.5 g of 2,4,6-Trinitrobenzene sulfonic acid (NBS) solution with 50% ethanol was injected into the colon through the anus using a syringe having 1 mL volume and an oval point, respectively; the syringe was vertically picked up, and then, maintained for 30 seconds to induce inflammation. Meanwhile, for the normal group, 0.1 mL of normal saline solution was orally administered. Subsequently, from the following day, the sample dissolved in normal saline solution was orally administered at a predetermined volume once daily for 3 days. On the following day after completing the sample administration, the experimental animals were suffocated to death with carbon dioxide, and the colon from the appendix to the region immediately before the anus was removed from the colon region. In this case, the experiments, where an ethanol extract of Anemarrhena asphodeloides Bunge, an ethanol extract of Coptis chinensis, a combined extract of the ethanol extract of Anemarrhena asphodeloides Bunge and the ethanol extract of Coptis chinensis, and a combined extract of a water extract of Anemarrhena asphodeloides Bunge and a water extract of Coptis chinensis were used as drug samples (hereinafter, “extract-based experiment”), and the experiments, where a butanol-soluble fraction of the ethanol extract of Anemarrhena asphodeloides Bunge, a butanol-soluble fraction of the ethanol extract of Coptis chinensis, and a combined extract of the butanol-soluble fraction of the ethanol extract of Anemarrhena asphodeloides Bunge and the butanol-soluble fraction of the ethanol extract of Coptis chinensis were used as drug samples (hereinafter, “fraction-based experiment”) were separately performed with time intervals, respectively. Considering the characteristics of animal experiments, it is reasonable that the effects of the drug samples on preventing or treating colitis be evaluated within each of the experiments and that the normal group supplied with saline solution instead of a specific drug sample, for the experimental animals not treated with TNBS, be used as a standard.
100 mg of colon tissues were homogenized after adding 200 μL of lysis buffer thereto. The homogenized colon tissues were centrifuged at 4° C. at a rate of 13000 rpm for 15 minutes, the supernatant therefrom was recovered, and the MPO activity was measured using a mouse MPO assay ELISA kit (Hbt HK210, USA). 100 μL of the supernatant was added into a 96-well plate and reacted at room temperature for 1 hour. Upon completion of the reaction, the plate was emptied by overturning, repeatedly washed three times with 200 μL of washing buffer, added with 100 μL of diluted tracer, and then the reaction was allowed to perform at room temperature for 1 hour. Upon completion of the reaction, the plate was emptied by overturning, and each well of the plate was washed using 200 μL of washing buffer. After repeatedly performing the washing process three times using 200 μL of washing buffer, 100 μL of diluted streptavidin-peroxidase conjugate was added thereto, and the reaction was allowed to perform at room temperature for 1 hour. Upon completion of the reaction, the plate was emptied by overturning, and each well of the plate was washed with 200 μL of washing buffer. After repeatedly washing three times using 200 μL of washing buffer, 100 μL of TMB substrate solution was added thereto, the plate was wrapped with an aluminum foil to block out the light, and the reaction was performed at room temperature for 30 minutes. Subsequently, 100 μL of a stop solution was added to terminate the reaction, and the absorbance was measured at 450 nm using an ELISA reader.

[5] = extract-based experiment, 10 mg/kg orally once daily for 3 days
[6] = extract-based experiment, 20 mg/kg orally once daily for 3 days
[7] = extract-based experiment, 50 mg/kg orally once daily for 3 days
[8] = fraction-based experiment, 10 mg/kg orally once daily for 3 days
[9] = fraction-based experiment, 20 mg/kg orally once daily for 3 days
[10] = fraction-based experiment, 50 mg/kg orally once daily for 3 days

SMILES: Nc1ccc(O)c(C(=O)O)c1 [Mesalazine ®, Mesalazine]
- Body weight [1]: 93.2%
- Colon length [1]: 89.9%
- Macroscopic score [1]: 550.5%
- MPO activity (Myeloperoxidase (MPO) [2]): 1111.6%
- TNF-α (TNF-α): 304.1%
- IL-1β (IL-1β): 618.4%
- IL-6 (IL-6): 190.0%
- IL-10 (IL-10): 53.1%
- Body weight [3, 5]: 59.46%
- Colon length [3, 5]: 89.06%
- Macroscopic score [3, 5]: 420%
- Body weight [3, 6]: 78.38%
- Colon length [3, 6]: 90.63%
- Macroscopic score [3, 6]: 420%
- Body weight [3, 7]: 75.68%
- Colon length [3, 7]: 90.63%
- Macroscopic score [3, 7]: 450%
- Body weight [3, 8]: 59.46%
- Colon length [3, 8]: 90.48%
- Macroscopic score [3, 8]: 500%
- Body weight [3, 9]: 78.38%
- Colon length [3, 9]: 92.06%
- Macroscopic score [3, 9]: 500%
- Body weight [3, 10]: 75.68%
- Colon length [3, 10]: 92.06%
- Macroscopic score [3, 10]: 600%
- MPO activity (Myeloperoxidase (MPO) [4]; [5]): 360%
- MPO activity (Myeloperoxidase (MPO) [4]; [6]): 360%
- MPO activity (Myeloperoxidase (MPO) [4]; [7]): 390%
- MPO activity (Myeloperoxidase (MPO) [4]; [8]): 300%
- MPO activity (Myeloperoxidase (MPO) [4]; [9]): 300%
- MPO activity (Myeloperoxidase (MPO) [4]; [10]): 317%
